Data published in ChEMBL document CHEMBL4507289, “Data for DCP probe GSM1” (2021).

Legend:
[1] = system: Tyrosine-protein kinase ABL1 (Homo sapiens), P00519 [F317L]; conditions: Compound concentration 1000.0 nM
[2] = system: Tyrosine-protein kinase ABL1 (Homo sapiens), P00519 [H396P]; conditions: Compound concentration 1000.0 nM
[3] = system: Tyrosine-protein kinase ABL1 (Homo sapiens), P00519 [T315I]; conditions: Compound concentration 1000.0 nM
[4] = system: Tyrosine-protein kinase ABL1 (Homo sapiens), P00519 [T315I]; conditions: Compound concentration 1000.0 nM; remark: listed apart in the source
[5] = molecular target: Tyrosine-protein kinase ABL1 (Homo sapiens) (UniProt P00519); conditions: Compound concentration 1000.0 nM
[6] = molecular target: RAC-alpha serine/threonine-protein kinase (Homo sapiens) (UniProt P31749); conditions: Compound concentration 1000.0 nM
Sequence of RAC-alpha serine/threonine-protein kinase (Homo sapiens) (P31749 whole entry): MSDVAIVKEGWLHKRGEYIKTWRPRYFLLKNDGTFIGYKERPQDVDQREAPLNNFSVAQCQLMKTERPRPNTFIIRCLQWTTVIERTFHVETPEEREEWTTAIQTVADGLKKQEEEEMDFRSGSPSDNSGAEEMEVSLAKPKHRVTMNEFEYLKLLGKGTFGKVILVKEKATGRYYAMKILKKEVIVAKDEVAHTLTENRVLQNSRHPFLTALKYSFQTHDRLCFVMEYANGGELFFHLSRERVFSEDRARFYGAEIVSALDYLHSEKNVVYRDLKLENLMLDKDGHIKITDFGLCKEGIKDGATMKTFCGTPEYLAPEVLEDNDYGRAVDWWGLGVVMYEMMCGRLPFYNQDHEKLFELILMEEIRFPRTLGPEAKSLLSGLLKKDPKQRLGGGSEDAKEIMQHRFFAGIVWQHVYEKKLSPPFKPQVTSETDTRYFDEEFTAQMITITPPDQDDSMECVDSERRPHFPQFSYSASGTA

[7] = molecular target: ALK tyrosine kinase receptor (Homo sapiens) (UniProt Q9UM73); conditions: Compound concentration 1000.0 nM
[8] = molecular target: Ankyrin repeat and protein kinase domain-containing protein 1 (Homo sapiens) (UniProt Q8NFD2); conditions: Compound concentration 1000.0 nM
[9] = molecular target: BMP-2-inducible protein kinase (Homo sapiens) (UniProt Q9NSY1); conditions: Compound concentration 1000.0 nM
[10] = molecular target: Tyrosine-protein kinase Blk (Homo sapiens) (UniProt P51451); conditions: Compound concentration 1000.0 nM
Sequence of Tyrosine-protein kinase Blk (Homo sapiens) (P51451 2-505 limits assumed): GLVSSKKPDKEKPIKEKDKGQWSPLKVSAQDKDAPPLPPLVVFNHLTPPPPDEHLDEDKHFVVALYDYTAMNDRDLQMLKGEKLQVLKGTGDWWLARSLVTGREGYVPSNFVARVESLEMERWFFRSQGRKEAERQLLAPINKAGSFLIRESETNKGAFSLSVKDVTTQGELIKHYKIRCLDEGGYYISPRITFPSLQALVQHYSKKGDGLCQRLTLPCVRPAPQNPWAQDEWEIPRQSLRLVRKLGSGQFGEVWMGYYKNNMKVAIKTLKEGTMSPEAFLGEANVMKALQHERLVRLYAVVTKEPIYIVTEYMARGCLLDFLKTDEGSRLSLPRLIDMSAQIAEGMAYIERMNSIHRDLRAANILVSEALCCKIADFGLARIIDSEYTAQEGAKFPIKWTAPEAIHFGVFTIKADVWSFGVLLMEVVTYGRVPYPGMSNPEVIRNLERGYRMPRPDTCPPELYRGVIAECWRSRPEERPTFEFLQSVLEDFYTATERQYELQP

[11] = molecular target: Bone morphogenetic protein receptor type-2 (Homo sapiens) (UniProt Q13873); conditions: Compound concentration 1000.0 nM
[12] = molecular target: Calcium/calmodulin-dependent protein kinase type II subunit beta (Homo sapiens) (UniProt Q13554); conditions: Compound concentration 1000.0 nM
[13] = molecular target: Calcium/calmodulin-dependent protein kinase kinase 2 (Homo sapiens) (UniProt Q96RR4); conditions: Compound concentration 1000.0 nM
[14] = molecular target: Cyclin-dependent kinase 7 (Homo sapiens) (UniProt P50613); conditions: Compound concentration 1000.0 nM
[15] = molecular target: Cyclin-dependent kinase-like 5 (Homo sapiens) (UniProt O76039); conditions: Compound concentration 1000.0 nM
[16] = molecular target: Serine/threonine-protein kinase Chk1 (Homo sapiens) (UniProt O14757); conditions: Compound concentration 1000.0 nM
Sequence of Serine/threonine-protein kinase Chk1 (Homo sapiens) (O14757 whole entry, canonical isoform): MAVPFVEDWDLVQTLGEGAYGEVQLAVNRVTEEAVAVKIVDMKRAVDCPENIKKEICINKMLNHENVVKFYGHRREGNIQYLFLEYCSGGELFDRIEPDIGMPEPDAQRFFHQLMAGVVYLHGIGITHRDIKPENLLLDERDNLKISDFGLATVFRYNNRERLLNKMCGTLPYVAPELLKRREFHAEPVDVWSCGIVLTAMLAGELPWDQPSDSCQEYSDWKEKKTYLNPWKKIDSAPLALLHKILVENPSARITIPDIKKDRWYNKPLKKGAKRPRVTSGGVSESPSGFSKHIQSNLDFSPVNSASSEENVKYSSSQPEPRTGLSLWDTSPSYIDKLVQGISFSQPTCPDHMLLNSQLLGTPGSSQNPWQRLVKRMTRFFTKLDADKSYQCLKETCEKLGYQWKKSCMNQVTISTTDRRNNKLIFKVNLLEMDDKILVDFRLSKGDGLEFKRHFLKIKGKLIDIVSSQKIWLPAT

[17] = molecular target: Casein kinase I isoform delta (Homo sapiens) (UniProt P48730); conditions: Compound concentration 1000.0 nM
[18] = molecular target: Ephrin type-A receptor 4 (Homo sapiens) (UniProt P54764); conditions: Compound concentration 1000.0 nM
[19] = molecular target: Receptor tyrosine-protein kinase erbB-4 (Homo sapiens) (UniProt Q15303); conditions: Compound concentration 1000.0 nM
Sequence of Receptor tyrosine-protein kinase erbB-4 (Homo sapiens) (Q15303 whole entry): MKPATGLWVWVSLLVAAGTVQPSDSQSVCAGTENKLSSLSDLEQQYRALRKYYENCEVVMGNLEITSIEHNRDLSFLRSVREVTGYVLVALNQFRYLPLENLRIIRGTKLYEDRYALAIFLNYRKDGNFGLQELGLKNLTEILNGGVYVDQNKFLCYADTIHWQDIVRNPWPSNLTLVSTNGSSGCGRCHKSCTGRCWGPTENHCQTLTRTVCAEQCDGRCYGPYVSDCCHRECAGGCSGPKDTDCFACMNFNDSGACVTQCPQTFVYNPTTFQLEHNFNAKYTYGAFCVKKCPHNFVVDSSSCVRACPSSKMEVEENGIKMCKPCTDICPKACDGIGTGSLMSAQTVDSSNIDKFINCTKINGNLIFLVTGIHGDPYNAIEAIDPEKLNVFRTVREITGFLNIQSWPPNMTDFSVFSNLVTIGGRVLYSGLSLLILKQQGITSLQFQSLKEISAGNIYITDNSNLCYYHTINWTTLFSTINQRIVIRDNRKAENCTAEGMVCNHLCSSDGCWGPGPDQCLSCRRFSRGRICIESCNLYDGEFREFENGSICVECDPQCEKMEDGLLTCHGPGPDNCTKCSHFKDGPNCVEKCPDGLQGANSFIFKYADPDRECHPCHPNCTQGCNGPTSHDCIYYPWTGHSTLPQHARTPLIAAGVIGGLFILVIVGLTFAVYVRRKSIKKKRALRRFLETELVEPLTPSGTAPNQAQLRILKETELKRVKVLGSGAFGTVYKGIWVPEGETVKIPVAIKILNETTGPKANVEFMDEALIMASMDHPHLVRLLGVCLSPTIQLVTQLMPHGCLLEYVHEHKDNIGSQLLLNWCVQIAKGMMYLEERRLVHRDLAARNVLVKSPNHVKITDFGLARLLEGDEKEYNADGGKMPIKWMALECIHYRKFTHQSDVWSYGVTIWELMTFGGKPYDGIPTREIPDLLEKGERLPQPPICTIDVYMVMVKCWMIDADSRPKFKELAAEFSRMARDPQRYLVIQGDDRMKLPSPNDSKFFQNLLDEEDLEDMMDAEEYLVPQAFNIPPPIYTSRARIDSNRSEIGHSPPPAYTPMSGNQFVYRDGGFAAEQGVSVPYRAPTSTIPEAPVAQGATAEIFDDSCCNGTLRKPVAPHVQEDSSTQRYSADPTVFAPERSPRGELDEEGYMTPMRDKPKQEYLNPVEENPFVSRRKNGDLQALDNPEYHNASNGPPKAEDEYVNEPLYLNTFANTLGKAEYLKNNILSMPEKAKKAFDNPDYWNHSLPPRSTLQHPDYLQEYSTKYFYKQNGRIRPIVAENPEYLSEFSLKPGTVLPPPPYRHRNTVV

[20] = molecular target: Rhodopsin kinase GRK7 (Homo sapiens) (UniProt Q8WTQ7); conditions: Compound concentration 1000.0 nM
[21] = molecular target: Homeodomain-interacting protein kinase 3 (Homo sapiens) (UniProt Q9H422); conditions: Compound concentration 1000.0 nM
[22] = molecular target: Inhibitor of nuclear factor kappa-B kinase subunit epsilon (Homo sapiens) (UniProt Q14164); conditions: Compound concentration 1000.0 nM
[23] = molecular target: Serine/threonine-protein kinase MARK1 (Homo sapiens) (UniProt Q9P0L2); conditions: Compound concentration 1000.0 nM
Sequence of Serine/threonine-protein kinase MARK1 (Homo sapiens) (Q9P0L2 whole entry, looked up): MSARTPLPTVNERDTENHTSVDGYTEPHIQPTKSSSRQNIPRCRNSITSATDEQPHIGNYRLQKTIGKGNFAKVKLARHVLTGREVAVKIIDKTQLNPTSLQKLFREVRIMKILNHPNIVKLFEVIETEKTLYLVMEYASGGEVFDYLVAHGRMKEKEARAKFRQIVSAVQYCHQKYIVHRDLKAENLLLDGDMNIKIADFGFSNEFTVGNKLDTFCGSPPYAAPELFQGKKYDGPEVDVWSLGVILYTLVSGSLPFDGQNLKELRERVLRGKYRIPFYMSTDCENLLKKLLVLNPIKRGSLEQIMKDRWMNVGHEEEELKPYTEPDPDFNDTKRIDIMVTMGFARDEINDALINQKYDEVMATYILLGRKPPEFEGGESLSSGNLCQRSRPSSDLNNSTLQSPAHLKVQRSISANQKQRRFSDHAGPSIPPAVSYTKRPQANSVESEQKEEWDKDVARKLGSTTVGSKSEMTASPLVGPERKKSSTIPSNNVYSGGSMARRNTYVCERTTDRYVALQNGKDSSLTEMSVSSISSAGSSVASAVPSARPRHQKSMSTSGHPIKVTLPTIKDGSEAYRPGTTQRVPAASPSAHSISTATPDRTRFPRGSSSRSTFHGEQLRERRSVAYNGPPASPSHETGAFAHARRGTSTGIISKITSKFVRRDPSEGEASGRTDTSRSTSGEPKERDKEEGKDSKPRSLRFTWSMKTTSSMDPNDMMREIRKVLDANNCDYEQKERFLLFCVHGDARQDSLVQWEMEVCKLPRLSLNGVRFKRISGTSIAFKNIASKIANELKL

[24] = molecular target: Dual specificity mitogen-activated protein kinase kinase 5 (Homo sapiens) (UniProt Q13163); conditions: Compound concentration 1000.0 nM
[25] = molecular target: Myosin-IIIa (Homo sapiens) (UniProt Q8NEV4); conditions: Compound concentration 1000.0 nM
[26] = molecular target: Serine/threonine-protein kinase Nek11 (Homo sapiens) (UniProt Q8NG66); conditions: Compound concentration 1000.0 nM
[27] = molecular target: Serine/threonine-protein kinase Nek5 (Homo sapiens) (UniProt Q6P3R8); conditions: Compound concentration 1000.0 nM
[28] = molecular target: Cyclin-dependent kinase 15 (Homo sapiens) (UniProt Q96Q40); conditions: Compound concentration 1000.0 nM
[29] = molecular target: Phosphatidylinositol 4-phosphate 3-kinase C2 domain-containing subunit beta (Homo sapiens) (UniProt O00750); conditions: Compound concentration 1000.0 nM
[30] = molecular target: Phosphatidylinositol 4,5-bisphosphate 3-kinase catalytic subunit alpha isoform (Homo sapiens) (UniProt P42336); conditions: Compound concentration 1000.0 nM
[31] = system: Phosphatidylinositol 4,5-bisphosphate 3-kinase catalytic subunit alpha isoform (Homo sapiens), P42336 [E545A]; conditions: Compound concentration 1000.0 nM
[32] = molecular target: Membrane-associated tyrosine- and threonine-specific cdc2-inhibitory kinase (Homo sapiens) (UniProt Q99640); conditions: Compound concentration 1000.0 nM
[33] = molecular target: Serine/threonine-protein kinase RIO2 (Homo sapiens) (UniProt Q9BVS4); conditions: Compound concentration 1000.0 nM
[34] = molecular target: Serine/threonine-protein kinase RIO3 (Homo sapiens) (UniProt O14730); conditions: Compound concentration 1000.0 nM
[35] = molecular target: Ribosomal protein S6 kinase alpha-2 (Homo sapiens) (UniProt Q15349); conditions: Compound concentration 1000.0 nM
Sequence of Ribosomal protein S6 kinase alpha-2 (Homo sapiens) (Q15349 whole entry): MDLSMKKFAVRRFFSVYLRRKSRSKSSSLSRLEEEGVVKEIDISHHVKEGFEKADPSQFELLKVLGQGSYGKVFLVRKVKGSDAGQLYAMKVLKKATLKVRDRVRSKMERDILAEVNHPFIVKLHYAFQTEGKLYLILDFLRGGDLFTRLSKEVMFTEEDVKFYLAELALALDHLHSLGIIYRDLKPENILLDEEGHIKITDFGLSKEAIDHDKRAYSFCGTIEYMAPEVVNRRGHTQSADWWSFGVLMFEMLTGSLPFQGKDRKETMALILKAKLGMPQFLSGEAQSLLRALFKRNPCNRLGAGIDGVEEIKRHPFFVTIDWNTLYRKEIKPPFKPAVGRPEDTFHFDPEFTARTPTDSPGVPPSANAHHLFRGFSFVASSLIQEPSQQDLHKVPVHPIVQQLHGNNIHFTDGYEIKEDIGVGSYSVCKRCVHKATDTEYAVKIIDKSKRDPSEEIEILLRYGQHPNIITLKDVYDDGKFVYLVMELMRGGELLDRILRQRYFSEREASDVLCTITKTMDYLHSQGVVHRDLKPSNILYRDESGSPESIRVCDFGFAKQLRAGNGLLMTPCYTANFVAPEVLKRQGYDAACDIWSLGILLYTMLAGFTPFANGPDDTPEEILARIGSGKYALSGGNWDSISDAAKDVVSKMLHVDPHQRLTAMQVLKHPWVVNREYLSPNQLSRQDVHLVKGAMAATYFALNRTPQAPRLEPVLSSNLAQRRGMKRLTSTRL

[36] = molecular target: Serine/threonine-protein kinase TAO1 (Homo sapiens) (UniProt Q7L7X3); conditions: Compound concentration 1000.0 nM
[37] = molecular target: Serine/threonine-protein kinase TBK1 (Homo sapiens) (UniProt Q9UHD2); conditions: Compound concentration 1000.0 nM
Sequence of Serine/threonine-protein kinase TBK1 (Homo sapiens) (Q9UHD2 whole entry): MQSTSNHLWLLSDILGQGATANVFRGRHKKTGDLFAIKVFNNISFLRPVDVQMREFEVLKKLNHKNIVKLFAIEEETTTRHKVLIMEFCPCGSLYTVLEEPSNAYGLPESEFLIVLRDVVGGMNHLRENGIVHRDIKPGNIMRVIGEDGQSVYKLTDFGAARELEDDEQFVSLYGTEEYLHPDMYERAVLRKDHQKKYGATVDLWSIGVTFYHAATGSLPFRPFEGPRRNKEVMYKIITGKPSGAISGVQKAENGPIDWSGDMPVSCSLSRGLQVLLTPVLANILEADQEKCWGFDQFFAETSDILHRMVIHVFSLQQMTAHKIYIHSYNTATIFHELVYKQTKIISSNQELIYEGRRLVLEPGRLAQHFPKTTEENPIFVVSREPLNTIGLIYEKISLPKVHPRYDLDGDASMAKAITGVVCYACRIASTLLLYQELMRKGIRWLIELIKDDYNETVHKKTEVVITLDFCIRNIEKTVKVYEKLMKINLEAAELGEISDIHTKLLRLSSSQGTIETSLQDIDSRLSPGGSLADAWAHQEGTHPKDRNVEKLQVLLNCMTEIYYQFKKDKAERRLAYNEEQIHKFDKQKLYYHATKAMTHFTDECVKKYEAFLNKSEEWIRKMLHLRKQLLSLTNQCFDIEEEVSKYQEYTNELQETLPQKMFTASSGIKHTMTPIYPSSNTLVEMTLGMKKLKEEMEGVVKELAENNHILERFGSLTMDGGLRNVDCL

[38] = molecular target: Tyrosine-protein kinase Tec (Homo sapiens) (UniProt P42680); conditions: Compound concentration 1000.0 nM
[39] = molecular target: High affinity nerve growth factor receptor (Homo sapiens) (UniProt P04629); conditions: Compound concentration 1000.0 nM
[40] = molecular target: Dual specificity protein kinase TTK (Homo sapiens) (UniProt P33981); conditions: Compound concentration 1000.0 nM
[41] = molecular target: Non-receptor tyrosine-protein kinase TYK2 (Homo sapiens) (UniProt P29597); conditions: Compound concentration 1000.0 nM
[42] = molecular target: Serine/threonine-protein kinase WNK2 (Homo sapiens) (UniProt Q9Y3S1); conditions: Compound concentration 1000.0 nM
[43] = molecular target: Histamine H3 receptor (Homo sapiens) (UniProt Q9Y5N1); conditions: Compound concentration 10.0 uM
[44] = molecular target: Alpha-2A adrenergic receptor (Homo sapiens) (UniProt P08913); conditions: Compound concentration 10.0 uM
[45] = molecular target: Alpha-2C adrenergic receptor (Homo sapiens) (UniProt P18825); conditions: Compound concentration 10.0 uM

COc1cc(-c2cn([C@H]3CCc4c(F)cccc4N(CC(F)(F)F)C3=O)nn2)ccc1-n1cnc(C)c1
inactive: residual activity [1] 85% | residual activity [2] 52% | residual activity [3] 85% | residual activity [4] 83% | residual activity [5] 94% | residual activity [6] 96% | residual activity [7] 100% | residual activity [8] 100% | residual activity [9] 100% | residual activity [10] 100% | residual activity [11] 100% | residual activity [12] 100% | residual activity [13] 100% | residual activity [14] 100% | residual activity [15] 91% | residual activity [16] 100% | residual activity [17] 100% | residual activity [18] 100% | residual activity [19] 100% | residual activity [20] 100% | residual activity [21] 100% | residual activity [22] 100% | residual activity [23] 100% | residual activity [24] 58% | residual activity [25] 100% | residual activity [26] 100% | residual activity [27] 90% | residual activity [28] 100% | residual activity [29] 100% | residual activity [30] 94% | residual activity [31] 100% | residual activity [32] 100% | residual activity [33] 100% | residual activity [34] 100% | residual activity [35] 100% | residual activity [36] 100% | residual activity [37] 100% | residual activity [38] 100% | residual activity [39] 81% | residual activity [40] 100% | residual activity [41] 100% | residual activity [42] 53% | inhibition [43] 23.3% | inhibition [44] 35% | inhibition [45] 38.3%

COc1cc(-c2cn([C@H]3CCc4ccccc4N(CC(F)(F)F)C3=O)nn2)ccc1-n1ccc(C)n1
inactive: residual activity [1] 64% | residual activity [3] 77% | residual activity [4] 70% | residual activity [5] 78% | residual activity [6] 97% | residual activity [7] 92% | residual activity [8] 78% | residual activity [9] 100% | residual activity [10] 100% | residual activity [11] 100% | residual activity [12] 97% | residual activity [13] 100% | residual activity [14] 87% | residual activity [15] 87% | residual activity [16] 100% | residual activity [17] 100% | residual activity [18] 92% | residual activity [19] 100% | residual activity [20] 87% | residual activity [21] 83% | residual activity [22] 68% | residual activity [23] 99% | residual activity [24] 74% | residual activity [25] 100% | residual activity [26] 99% | residual activity [27] 100% | residual activity [28] 100% | residual activity [29] 100% | residual activity [30] 69% | residual activity [31] 71% | residual activity [32] 100% | residual activity [33] 96% | residual activity [34] 100% | residual activity [35] 100% | residual activity [36] 92% | residual activity [37] 88% | residual activity [38] 100% | residual activity [39] 63% | residual activity [40] 100% | residual activity [41] 100% | residual activity [42] 87% | inhibition [43] 20.9% | inhibition [44] 22.2% | inhibition [45] 9.04%
active: residual activity [2] 47%
